Legend:
PARP7 = target: T1, PARP7 (Homo sapiens, UniProt Q7Z3E1); assay: Probe Displacement Assay for PARP7 (MSD electrochemiluminescent, biotinylated probe RBNO11147); details: displacement of biotinylated probe RBNO11147 from PARP7 NAD+-binding site; read-out: MSD ProbeDisp PARP7 IC50
T1 sequence (Q7Z3E1 1-657): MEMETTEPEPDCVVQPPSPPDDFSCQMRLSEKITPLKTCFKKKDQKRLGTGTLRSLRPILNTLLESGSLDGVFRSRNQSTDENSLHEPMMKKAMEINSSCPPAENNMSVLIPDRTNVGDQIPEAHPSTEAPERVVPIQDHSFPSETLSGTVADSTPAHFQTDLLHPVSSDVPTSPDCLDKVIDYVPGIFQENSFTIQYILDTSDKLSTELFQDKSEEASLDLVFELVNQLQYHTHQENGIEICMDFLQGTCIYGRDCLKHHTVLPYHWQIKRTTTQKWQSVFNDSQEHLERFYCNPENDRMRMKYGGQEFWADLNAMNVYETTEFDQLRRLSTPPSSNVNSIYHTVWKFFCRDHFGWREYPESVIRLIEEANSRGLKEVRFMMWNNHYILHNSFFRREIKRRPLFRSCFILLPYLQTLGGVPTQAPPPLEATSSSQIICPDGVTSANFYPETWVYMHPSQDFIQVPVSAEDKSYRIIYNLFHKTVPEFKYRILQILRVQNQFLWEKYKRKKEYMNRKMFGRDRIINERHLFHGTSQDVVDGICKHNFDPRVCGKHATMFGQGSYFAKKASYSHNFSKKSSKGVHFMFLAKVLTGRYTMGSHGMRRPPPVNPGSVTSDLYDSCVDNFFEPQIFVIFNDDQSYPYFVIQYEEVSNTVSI

[1] = test system: endogenous cellular STAT1 (phosphorylated at Tyr701) in NCI-H1373 cells; assay: Phospho-STAT1 (Tyr701) LANCE Ultra TR-FRET Detection Assay; type: cell-based; details: Homo sapiens, NCI-H1373, 48 h, phospho-STAT1 (Tyr701) induction, read-out: NH1373 pSTAT1 EC50

SMILES | IC50 (PARP7) [nM] | EC50 [1] [nM]
C[C@@H](CCCn1ccc2cc(-c3ncc(OC(F)F)cn3)c(F)c(F)c2c1=O)Nc1cn[nH]c(=O)c1C(F)(F)F [Example 56, (S)-6-(5-(difluoromethoxy)pyrimidin-2-yl)-7,8-difluoro-2-(4-((6-oxo-5-(trifluoromethyl)-1,6-dihydropyridazin-4-yl)amino)pentyl)isoquinolin-1(2H)-one] | 0.579 | 67.2
C[C@@H](CCCn1ccc2cc(-c3ccc(OC(F)F)cn3)c(F)c(F)c2c1=O)Nc1cn[nH]c(=O)c1C(F)(F)F [Example 57, (S)-6-(5-(difluoromethoxy)pyridin-2-yl)-7,8-difluoro-2-(4-((6-oxo-5-(trifluoromethyl)-1,6-dihydropyridazin-4-yl)amino)pentyl)isoquinolin-1(2H)-one] | 0.613 | 144
C[C@@H](CCCn1cnc2cc(-c3ccc(C(F)(F)F)cn3)c(F)cc2c1=O)Nc1cn[nH]c(=O)c1C(F)(F)F [Example 58, (S)-6-fluoro-3-(4-((6-oxo-5-(trifluoromethyl)-1,6-dihydropyridazin-4-yl)amino)pentyl)-7-(5-(trifluoromethyl)pyridin-2-yl)quinazolin-4(3H)-one] | 0.484 | 124
C[C@@H](CCCn1cnc2cc(-c3ccc(F)cn3)c(F)cc2c1=O)Nc1cn[nH]c(=O)c1C(F)(F)F [Example 59, (S)-6-fluoro-7-(5-fluoropyridin-2-yl)-3-(4-((6-oxo-5-(trifluoromethyl)-1,6-dihydropyridazin-4-yl)amino)pentyl)quinazolin-4(3H)-one] | 0.82 | 386
C[C@@H](CCCn1cnc2cc(-c3ncc(F)cn3)c(F)cc2c1=O)Nc1cn[nH]c(=O)c1C(F)(F)F [Example 60, 6-fluoro-7-(5-fluoropyrimidin-2-yl)-3-[(4S)-4-[[6-oxo-5-(trifluoromethyl)-1H-pyridazin-4-yl]amino]pentyl]quinazolin-4-one] | 0.897 | 772
O=c1[nH]ncc(NC2(CCCn3ccc4cc(-c5ncc(C(F)(F)F)cn5)c(F)cc4c3=O)CC2)c1C(F)(F)F [Example 61, 7-fluoro-2-(3-(1-((6-oxo-5-(trifluoromethyl)-1,6-dihydropyridazin-4-yl)amino)cyclopropyl)propyl)-6-(5-(trifluoromethyl)pyrimidin-2-yl)isoquinolin-1(2H)-one] | 1.27 | 638
C[C@@H](CCCn1ccc2cc(-c3ncc(C(F)F)cn3)c(F)cc2c1=O)Nc1cn[nH]c(=O)c1C(F)(F)F [Example 76, 6-[5-(difluoromethyl)pyrimidin-2-yl]-7-fluoro-2-[(4S)-4-[[6-oxo-5-(trifluoromethyl)-1H-pyridazin-4-yl]amino]pentyl]isoquinolin-1-one] | 0.41 | 21.3
C[C@@H](CCCn1ccc2cc(-c3ncc(C(F)F)c(N)n3)c(F)cc2c1=O)Nc1cn[nH]c(=O)c1C(F)(F)F [Example 104, 6-[4-amino-5-(difluoromethyl)pyrimidin-2-yl]-7-fluoro-2-[(4S)-4-[[6-oxo-5-(trifluoromethyl)-1H-pyridazin-4-yl]amino]pentyl]isoquinolin-1-one] | 0.33 | 4.6
CC[C@@H](CCCn1cnc2cc(-c3ncc(C(F)(F)F)cn3)c(F)cc2c1=O)Nc1cn[nH]c(=O)c1C(F)(F)F [Example 155, (S)-6-fluoro-3-(4-((6-oxo-5-(trifluoromethyl)-1,6-dihydropyridazin-4-yl)amino)hexyl)-7-(5-(trifluoromethyl)pyrimidin-2-yl)quinazolin-4(3H)-one] | 0.2 | 21.2
CC[C@@H](CCCn1cnc2cc(-c3ncc(C(F)F)cn3)c(F)cc2c1=O)Nc1cn[nH]c(=O)c1C(F)(F)F [Example 156, 7-[5-(difluoromethyl)pyrimidin-2-yl]-6-fluoro-3-[(4S)-4-[[6-oxo-5-(trifluoromethyl)-1H-pyridazin-4-yl]amino]hexyl]quinazolin-4-one] | 0.29 | 22.1
O=c1[nH]ncc(N[C@@H](CO)CCCn2ccc3cc(-c4ncc(C(F)(F)F)cn4)c(F)c(F)c3c2=O)c1C(F)(F)F [Example 163, 7,8-difluoro-2-[(4R)-5-hydroxy-4-[[6-oxo-5-(trifluoromethyl)-1H-pyridazin-4-yl]amino]pentyl]-6-[5-(trifluoromethyl)pyrimidin-2-yl]isoquinolin-1-one] | 0.341 | 62.8
O=c1[nH]ncc(N[C@H](CCCn2ccc3cc(-c4ncc(C(F)(F)F)cn4)c(F)cc3c2=O)COC(F)F)c1C(F)(F)F [Example 168, 2-[(4R)-5-(difluoromethoxy)-4-[[6-oxo-5-(trifluoromethyl)-1H-pyridazin-4-yl]amino]pentyl]-7-fluoro-6-[5-(trifluoromethyl)pyrimidin-2-yl]isoquinolin-1-one] | 0.256 | 1.32
Nc1nc(-c2cc3ccn(C[C@@H]4CCC[C@H](Nc5cn[nH]c(=O)c5C(F)(F)F)C4)c(=O)c3cc2F)ncc1C(F)(F)F [Example 184, 6-[4-amino-5-(trifluoromethyl)pyrimidin-2-yl]-7-fluoro-2-[[(1R,3S)-3-[[6-oxo-5-(trifluoromethyl)-1H-pyridazin-4-yl]amino]cyclohexyl]methyl]isoquinolin-1-one] | 0.311 | 1.8
C[C@@H](CCCn1ccc2cc(-c3ncc4c(n3)NC(=O)CO4)c(F)cc2c1=O)Nc1cn[nH]c(=O)c1C(F)(F)F [Example 185, (S)-2-(7-fluoro-1-oxo-2-(4-((6-oxo-5-(trifluoromethyl)-1,6-dihydropyridazin-4-yl)amino)pentyl)-1,2-dihydroisoquinolin-6-yl)-6H-pyrimido[5,4-b][1,4]oxazin-7(8H)-one] | 0.11 | 1750
C[C@@H](CCCn1cnc2cc(-c3ncc(C(F)(F)F)c(N4CC(C#N)C4)n3)c(F)cc2c1=O)Nc1cn[nH]c(=O)c1C(F)(F)F [Example 206] | 0.188 | 9.34

Other lines, results leading:

IC50 (PARP7) [nM] | EC50 [1] [nM] | SMILES
0.221 | 31 | C[C@@H](CCCn1ccc2cc(-c3ncc4cn[nH]c4n3)c(F)cc2c1=O)Nc1cn[nH]c(=O)c1C(F)(F)F [Example 299, (S)-7-fluoro-2-(4-((6-oxo-5-(trifluoromethyl)-1,6-dihydropyridazin-4-yl)amino)pentyl)-6-(1H-pyrazolo[3,4-d]pyrimidin-6-yl)isoquinolin-1(2H)-one]
0.413 | 56.1 | C[C@@H](CCCn1ccc2cc(-c3nc(C(F)(F)F)n(C)n3)c(F)cc2c1=O)Nc1cn[nH]c(=O)c1C(F)(F)F [Example 300, (S)-7-fluoro-6-(1-methyl-5-(trifluoromethyl)-1H-1,2,4-triazol-3-yl)-2-(4-((6-oxo-5-(trifluoromethyl)-1,6-dihydropyridazin-4-yl)amino)pentyl)isoquinolin-1(2H)-one]
0.508 | 549 | C[C@@H](CCCn1ccc2cc(-c3nc(C(F)F)cs3)c(F)cc2c1=O)Nc1cn[nH]c(=O)c1C(F)(F)F [Example 301, (S)-6-(4-(difluoromethyl)thiazol-2-yl)-7-fluoro-2-(4-((6-oxo-5-(trifluoromethyl)-1,6-dihydropyridazin-4-yl)amino)pentyl)isoquinolin-1(2H)-one]
2.06 | 108 | C[C@@H](CCCn1ccc2cc(-c3ncc(CN)cn3)c(F)cc2c1=O)Nc1cn[nH]c(=O)c1C(F)(F)F [Example 302, (S)-6-(5-(aminomethyl)pyrimidin-2-yl)-7-fluoro-2-(4-((6-oxo-5-(trifluoromethyl)-1,6-dihydropyridazin-4-yl)amino)pentyl)isoquinolin-1(2H)-one]
0.273 | 3.43 | CC[C@@H](CCCn1ccc2cc(-c3ncc(Cl)c(N)n3)c(F)cc2c1=O)Nc1cn[nH]c(=O)c1C(F)(F)F [Example 303, (S)-6-(4-amino-5-chloropyrimidin-2-yl)-7-fluoro-2-(4-((6-oxo-5-(trifluoromethyl)-1,6-dihydropyridazin-4-yl)amino)hexyl)isoquinolin-1(2H)-one]
0.199 | 25.6 | C[C@@H](CCCn1ccc2cc(-c3cc4ccccn4n3)c(F)cc2c1=O)Nc1cn[nH]c(=O)c1C(F)(F)F [Example 304, (S)-7-fluoro-2-(4-((6-oxo-5-(trifluoromethyl)-1,6-dihydropyridazin-4-yl)amino)pentyl)-6-(pyrazolo[1,5-a]pyridin-2-yl)isoquinolin-1(2H)-one]
0.387 | 57 | C[C@@H](CCCn1ccc2cc(-c3cn4ccccc4n3)c(F)cc2c1=O)Nc1cn[nH]c(=O)c1C(F)(F)F [Example 305, (S)-7-fluoro-6-(imidazo[1,2-a]pyridin-2-yl)-2-(4-((6-oxo-5-(trifluoromethyl)-1,6-dihydropyridazin-4-yl)amino)pentyl)isoquinolin-1(2H)-one]
0.21 | 2.18 | C[C@@H](CCCn1ccc2cc(-c3nc4ccccn4n3)c(F)cc2c1=O)Nc1cn[nH]c(=O)c1C(F)(F)F [Example 306, (S)-6-([1,2,4]triazolo[1,5-a]pyridin-2-yl)-7-fluoro-2-(4-((6-oxo-5-(trifluoromethyl)-1,6-dihydropyridazin-4-yl)amino)pentyl)isoquinolin-1(2H)-one]
